In US7767659B2, “Synthesis of naturally occurring ecteinascidins and related compounds” (Pharma Mar, S.A., priority 2002, dated 2010):

Columns and labels:
HT-29 = assay: cells; settings: Homo sapiens, HT-29, 48 h; for GI50: read-out: HT29 GI50; for CC50: read-out: HT29 LC50; for IC (TGI): read-out: HT29 TGI
In short: (§1)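 Colorimetric SRB read (490 nm) on triplicate wells after 48 h at 37 °C, 5% CO2. Dose range 10 to 10^−8 μg/ml; 5×10^3 cells/well pre-attached 18 h.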

LoVo = assay: cells; settings: Homo sapiens, LoVo, 48 h; for GI50: read-out: LOVO GI50; for CC50: read-out: LOVO LC50; for IC (TGI): read-out: LOVO TGI
In short: as §1

A-549 = assay: cells; settings: Homo sapiens, A549, 48 h; for GI50: read-out: A549 GI50; for CC50: read-out: A549 LC50; for IC (TGI): read-out: A549 TGI
In short: as §1

IGROV-1 = assay: Inhibition of cells growth by colorimetric assay (SRB); settings: Homo sapiens, IGROV-1, 48 h; for GI50: read-out: IGROV GI50; for CC50: read-out: IGROV LC50; for IC (TGI): read-out: IGROV TGI
In short: as §1

HeLa-APL = assay: as above; settings: Homo sapiens, 48 h; for GI50: read-out: HELA-APL GI50; for CC50: read-out: HELA-APL LC50; for IC (TGI): read-out: HELA-APL TGI
In short: as §1

HeLa = assay: as above; settings: Homo sapiens, HeLa, 48 h; for GI50: read-out: HELA GI50; for CC50: read-out: HELA LC50; for IC (TGI): read-out: HELA TGI
In short: as §1

DU-145 = assay: as above; settings: Homo sapiens, DU-145, 48 h; for GI50: read-out: DU145 GI50; for CC50: read-out: DU145 LC50; for IC (TGI): read-out: DU145 TGI
In short: as §1

PANC-1 = assay: as above; settings: Homo sapiens, PANC-1, 48 h; for GI50: read-out: PANC-1 GI50; for CC50: read-out: PANC-1 LC50; for IC (TGI): read-out: PANC-1 TGI
In short: as §1

K-562 = assay: as above; settings: Homo sapiens, K562, 48 h; for GI50: read-out: K562 GI50; for CC50: read-out: K562 LC50; for IC (TGI): read-out: K562 TGI
In short: as §1

IGROV-ET = assay: as above; settings: Homo sapiens, 48 h; for GI50: read-out: IGROV-ET GI50; for CC50: read-out: IGROV-ET LC50; for IC (TGI): read-out: IGROV-ET TGI
In short: as §1

SK-MEL-28 = assay: as above; settings: Homo sapiens, SK-MEL-28, 48 h; for GI50: read-out: MEL-28 GI50; for CC50: read-out: MEL-28 LC50; for IC (TGI): read-out: MEL-28 TGI
In short: as §1

LNCaP = assay: as above; settings: Homo sapiens, LNCaP, 48 h; for GI50: read-out: LNCAP GI50; for CC50: read-out: LNCAP LC50; for IC (TGI): read-out: LNCAP TGI
In short: as §1

SK-BR-3 = assay: as above; settings: Homo sapiens, SK-BR-3, 48 h; for GI50: read-out: SK-BR3 GI50; for CC50: read-out: SK-BR3 LC50; for IC (TGI): read-out: SK-BR3 TGI
In short: as §1

LoVo-Dox = assay: as above; settings: Homo sapiens, 48 h; for GI50: read-out: LOVO-DOX GI50; for CC50: read-out: LOVO-DOX LC50; for IC (TGI): read-out: LOVO-DOX TGI
In short: as §1

C=CCN1[C@@H]2c3c(cc(C)c(OC)c3O)C[C@H]1[C@H](C#N)N1C2[C@@H]2SC[C@]3(NCCc4cc(OC(=O)OC(C)(C)C)c(OC)cc43)C(=O)OC[C@H]1c1c3c(c(C)c(OC(C)=O)c12)OCO3 (stereo partly drawn) [compound 44]
GI50 (HT-29): 0.0388 µM | CC50 (HT-29): 11.1 µM | IC (TGI) (HT-29): 1.54 µM | GI50 (LoVo): 0.0339 µM | CC50 (LoVo): 11.1 µM | IC (TGI) (LoVo): 0.143 µM | GI50 (A-549): 0.0274 µM | CC50 (A-549): 0.47 µM | IC (TGI) (A-549): 0.0567 µM | GI50 (IGROV-1): 0.0326 µM | CC50 (IGROV-1): 11.1 µM | IC (TGI) (IGROV-1): 0.078 µM | GI50 (HeLa-APL): 0.025 µM | CC50 (HeLa-APL): 0.352 µM | IC (TGI) (HeLa-APL): 0.0596 µM | GI50 (HeLa): 0.0202 µM | CC50 (HeLa): 0.0875 µM | IC (TGI) (HeLa): 0.042 µM | GI50 (DU-145): 0.0234 µM | CC50 (DU-145): 11.1 µM | IC (TGI) (DU-145): 0.0719 µM | GI50 (PANC-1): 0.0752 µM | CC50 (PANC-1): 11.1 µM | IC (TGI) (PANC-1): 0.344 µM | GI50 (K-562): 0.00797 µM | CC50 (K-562): 11.1 µM | IC (TGI) (K-562): 0.0779 µM | GI50 (IGROV-ET): 0.0492 µM | CC50 (IGROV-ET): 11.1 µM | IC (TGI) (IGROV-ET): 0.443 µM | GI50 (SK-MEL-28): 0.0234 µM | CC50 (SK-MEL-28): 0.0901 µM | IC (TGI) (SK-MEL-28): 0.0459 µM | GI50 (LNCaP): 0.00453 µM | CC50 (LNCaP): 0.048 µM | IC (TGI) (LNCaP): 0.0204 µM | GI50 (SK-BR-3): 0.00327 µM | CC50 (SK-BR-3): 0.0761 µM | IC (TGI) (SK-BR-3): 0.0119 µM | GI50 (LoVo-Dox): 0.297 µM | CC50 (LoVo-Dox): 11.1 µM | IC (TGI) (LoVo-Dox): 0.919 µM

C=CCN1[C@@H]2c3c(cc(C)c(OC)c3O)C[C@H]1[C@H](C#N)N1C2[C@@H]2SC[C@]3(NCCc4c3[nH]c3ccc(O)cc43)C(=O)OC[C@H]1c1c3c(c(C)c(OC(C)=O)c12)OCO3 (stereo partly drawn) [compound 57]
GI50 (HT-29): 0.0446 µM | CC50 (HT-29): 12.2 µM | IC (TGI) (HT-29): 4.38 µM | GI50 (LoVo): 0.0859 µM | CC50 (LoVo): 0.877 µM | IC (TGI) (LoVo): 0.274 µM | GI50 (A-549): 0.0374 µM | CC50 (A-549): 1.5 µM | IC (TGI) (A-549): 0.101 µM | GI50 (IGROV-1): 0.0288 µM | CC50 (IGROV-1): 6.48 µM | IC (TGI) (IGROV-1): 0.066 µM | GI50 (HeLa-APL): 0.0223 µM | CC50 (HeLa-APL): 0.115 µM | IC (TGI) (HeLa-APL): 0.0505 µM | GI50 (HeLa): 0.0268 µM | CC50 (HeLa): 0.112 µM | IC (TGI) (HeLa): 0.0564 µM | GI50 (DU-145): 0.0521 µM | CC50 (DU-145): 12.2 µM | IC (TGI) (DU-145): 12.2 µM | GI50 (PANC-1): 0.0529 µM | CC50 (PANC-1): 12.2 µM | IC (TGI) (PANC-1): 1.34 µM | GI50 (K-562): 0.00882 µM | CC50 (K-562): 12.2 µM | IC (TGI) (K-562): 0.0888 µM | GI50 (IGROV-ET): 0.252 µM | CC50 (IGROV-ET): 1.17 µM | IC (TGI) (IGROV-ET): 0.544 µM | GI50 (SK-MEL-28): 0.0293 µM | CC50 (SK-MEL-28): 0.106 µM | IC (TGI) (SK-MEL-28): 0.0556 µM | GI50 (LNCaP): 0.0151 µM | CC50 (LNCaP): 0.0693 µM | IC (TGI) (LNCaP): 0.0323 µM | GI50 (SK-BR-3): 0.00642 µM | CC50 (SK-BR-3): 0.382 µM | IC (TGI) (SK-BR-3): 0.0318 µM | GI50 (LoVo-Dox): 0.774 µM | CC50 (LoVo-Dox): 12.2 µM | IC (TGI) (LoVo-Dox): 6.22 µM

C=CCN1[C@@H]2c3c(cc(C)c(OC)c3O)C[C@H]1[C@H](C#N)N1C2[C@@H]2SC[C@]3(NCCc4c3[nH]c3ccc(OC)cc43)C(=O)OC[C@H]1c1c3c(c(C)c(OC(C)=O)c12)OCO3 (stereo partly drawn) [compound 56]
GI50 (HT-29): 0.0488 µM | CC50 (HT-29): 12 µM | IC (TGI) (HT-29): 0.571 µM | GI50 (LoVo): 0.023 µM | CC50 (LoVo): 0.101 µM | IC (TGI) (LoVo): 0.0482 µM | GI50 (A-549): 0.0302 µM | CC50 (A-549): 0.705 µM | IC (TGI) (A-549): 0.0687 µM | GI50 (IGROV-1): 0.0342 µM | CC50 (IGROV-1): 1.06 µM | IC (TGI) (IGROV-1): 0.0693 µM | GI50 (HeLa-APL): 0.0259 µM | CC50 (HeLa-APL): 0.204 µM | IC (TGI) (HeLa-APL): 0.0583 µM | GI50 (HeLa): 0.0271 µM | CC50 (HeLa): 0.104 µM | IC (TGI) (HeLa): 0.0531 µM | GI50 (DU-145): 0.041 µM | CC50 (DU-145): 12 µM | IC (TGI) (DU-145): 0.101 µM | GI50 (PANC-1): 0.0902 µM | CC50 (PANC-1): 12 µM | IC (TGI) (PANC-1): 0.953 µM | GI50 (K-562): 0.00689 µM | CC50 (K-562): 12 µM | IC (TGI) (K-562): 0.0868 µM | GI50 (IGROV-ET): 0.0402 µM | CC50 (IGROV-ET): 12 µM | IC (TGI) (IGROV-ET): 0.0797 µM | GI50 (SK-MEL-28): 0.0263 µM | CC50 (SK-MEL-28): 0.0914 µM | IC (TGI) (SK-MEL-28): 0.049 µM | GI50 (LNCaP): 0.0122 µM | CC50 (LNCaP): 0.0677 µM | IC (TGI) (LNCaP): 0.0288 µM | GI50 (SK-BR-3): 0.00571 µM | CC50 (SK-BR-3): 0.422 µM | IC (TGI) (SK-BR-3): 0.0186 µM | GI50 (LoVo-Dox): 0.333 µM | CC50 (LoVo-Dox): 12 µM | IC (TGI) (LoVo-Dox): 1.33 µM

C=CCN1[C@@H]2c3c(cc(C)c(OC)c3O)C[C@H]1[C@H](O)N1C2[C@@H]2SC[C@]3(NCCc4cc(O)c(OC)cc43)C(=O)OC[C@H]1c1c3c(c(C)c(OC(C)=O)c12)OCO3 (stereo partly drawn) [compound 67]
GI50 (HT-29): 0.0379 µM | CC50 (HT-29): 11.9 µM | IC (TGI) (HT-29): 0.102 µM | GI50 (LoVo): 0.0286 µM | CC50 (LoVo): 10.6 µM | IC (TGI) (LoVo): 0.073 µM | GI50 (A-549): 0.0327 µM | CC50 (A-549): 0.797 µM | IC (TGI) (A-549): 0.0687 µM | GI50 (IGROV-1): 0.0312 µM | CC50 (IGROV-1): 0.685 µM | IC (TGI) (IGROV-1): 0.0786 µM | GI50 (HeLa-APL): 0.0297 µM | CC50 (HeLa-APL): 0.327 µM | IC (TGI) (HeLa-APL): 0.0647 µM | GI50 (HeLa): 0.0302 µM | CC50 (HeLa): 0.395 µM | IC (TGI) (HeLa): 0.0674 µM | GI50 (DU-145): 0.0359 µM | CC50 (DU-145): 3.5 µM | IC (TGI) (DU-145): 0.0754 µM | GI50 (PANC-1): 0.0274 µM | CC50 (PANC-1): 2.78 µM | IC (TGI) (PANC-1): 0.0927 µM | GI50 (K-562): 0.0339 µM | CC50 (K-562): 2.09 µM | IC (TGI) (K-562): 0.0397 µM | GI50 (IGROV-ET): 0.0268 µM | CC50 (IGROV-ET): 2.68 µM | IC (TGI) (IGROV-ET): 0.0627 µM | GI50 (SK-MEL-28): 0.0204 µM | CC50 (SK-MEL-28): 0.1 µM | IC (TGI) (SK-MEL-28): 0.0453 µM | GI50 (LNCaP): 0.003 µM | CC50 (LNCaP): 0.0374 µM | IC (TGI) (LNCaP): 0.009 µM | GI50 (SK-BR-3): 0.00871 µM | CC50 (SK-BR-3): 0.284 µM | IC (TGI) (SK-BR-3): 0.0374 µM | GI50 (LoVo-Dox): 0.368 µM | CC50 (LoVo-Dox): 12.7 µM | IC (TGI) (LoVo-Dox): 0.975 µM
